From ChEMBL document CHEMBL5365482, “Rational Design of Sulfonyl-γ-AApeptides as Highly Potent HIV-1 Fusion Inhibitors with Broad-Spectrum Activity” (J Med Chem, 2023) come the findings set out here.

Data set [1] can be described thus: Apparent permeability of the compound across blood brain barrier in PBS buffer at pH 7.4 at 25 uM by PAMPA analysis. The class given is ADME, tissue-based. A general note: PAMPA measures passive passage across an artificial lipid membrane.
Data set [2] can be described thus: Selectivity index, ratio of CC50 for human MT2 cells to IC50 for HIV1 IIIB infected in human MT2 cells. In kind it is toxicity, cell-based. The settings on record: read-out: Ratio CC50/IC50.
The nature of data set [3]: Cytotoxicity against human MT2 cells assessed as inhibition of cell growth measured after 3 days by CCK8 assay. The class given is toxicity, cell-based. The settings on record: time 3 day. (In general: Tetrazolium assays rely on reduction of a dye to a coloured formazan, in cell work by metabolically active cells.)
Data set [4] deals with Human immunodeficiency virus 1. The data set is described as follows: Antiviral activity against HIV1 QD435.100MENV.E1 clinical isolate infected in human TZM-bl cells assessed as inhibition of viral growth incubated for 48 hrs by luciferase based analysis. The class given is functional, organism-based. The settings on record: Human immunodeficiency virus 1, QD435.100MENV.E1, TZM-bl.

Data set [5] can be described thus: Apparent permeability of the compound across gastrointestinal tract in PBS buffer at pH 6.2 at 50 uM by PAMPA analysis. To be noted: PAMPA, pH 6.2. In kind it is ADME, tissue-based.
For data set [6], the system named is Human immunodeficiency virus 1. The data set can be described thus: Antiviral activity against HIV1 R5 […] US4/GS 007 (91US_4) clinical isolate infected in human CEMx174 5.25M7 cells assessed as inhibition of viral growth incubated for 30 mins by ELISA assay. The class given is functional, organism-based. The settings on record: Human immunodeficiency virus 1, R5 […] US4/GS 007 (91US_4), CEMx174 5.25M7, 0.5 h. (In general: ELISA stands for enzyme-linked immunosorbent assay.)

Data set [7] relates to Human immunodeficiency virus 1. The data set can be described thus: Antiviral activity against HIV1 CRF02_AG Clone 278 clinical isolate infected in human TZM-bl cells assessed as inhibition of viral growth incubated for 48 hrs by luciferase based analysis. In kind it is functional, organism-based. To be noted: Human immunodeficiency virus 1, CRF02_AG Clone 278, TZM-bl.
The test system of data set [8] is Human immunodeficiency virus 1. The data set can be described thus: Antiviral activity against HIV1 X4 […] MN/H9 (84US_MNp) clinical isolate infected in human MT2 cells assessed as inhibition of viral growth incubated for 30 mins by ELISA assay. The class given is functional, organism-based. The settings on record: Human immunodeficiency virus 1, X4 […] MN/H9 (84US_MNp), MT2, 0.5 h.

Data set [9] has as its system Human immunodeficiency virus 1. The data set can be described thus: Antiviral activity against HIV1 CRF02_AG Clone 33 clinical isolate infected in human TZM-bl cells assessed as inhibition of viral growth incubated for 48 hrs by luciferase based analysis. In kind it is functional, organism-based. The settings on record: Human immunodeficiency virus 1, CRF02_AG Clone 33, TZM-bl.

Data set [10] concerns Human immunodeficiency virus 1. The data set can be described thus: Antiviral activity against HIV1 IIIB infected in human MT2 cells assessed as inhibition of viral growth incubated for 30 mins by ELISA assay. In kind it is functional, organism-based. To be noted: Human immunodeficiency virus 1, IIIB, MT2, 0.5 h.
Data set [11] can be described thus: Apparent permeability of the compound across gastrointestinal tract in PBS buffer at pH 7.4 at 50 uM by PAMPA analysis. In kind it is ADME, tissue-based.
Data set [12] relates to Human immunodeficiency virus 1. The data set can be described thus: Antiviral activity against HIV1 Q259env.w6 clinical isolate infected in human TZM-bl cells assessed as inhibition of viral growth incubated for 48 hrs by luciferase based analysis. The class given is functional, organism-based. To be noted: Human immunodeficiency virus 1, Q259env.w6, TZM-bl.
Data set [13] has as its system Human immunodeficiency virus 1. The data set is described as follows: Antiviral activity against HIV1 QA013.701.ENV.M12 clinical isolate infected in human TZM-bl cells assessed as inhibition of viral growth incubated for 48 hrs by luciferase based analysis. The class given is functional, organism-based. The settings on record: Human immunodeficiency virus 1, QA013.701.ENV.M12, TZM-bl.

The nature of data set [14]: Apparent permeability of the compound across gastrointestinal tract in PBS buffer at pH 5 at 50 uM by PAMPA analysis. The class given is ADME, tissue-based. To be noted: PAMPA, pH 5.
Data set [15] deals with T1, Envelope glycoprotein gp160 (Human immunodeficiency virus 1, UniProt Q72502). The data set can be described thus: Binding affinity to HIV1 GP41 using GP41 NHR derived N36 peptide assessed as binding constant by fluorescence polarization assay.
T1 sequence (Q72502 whole entry): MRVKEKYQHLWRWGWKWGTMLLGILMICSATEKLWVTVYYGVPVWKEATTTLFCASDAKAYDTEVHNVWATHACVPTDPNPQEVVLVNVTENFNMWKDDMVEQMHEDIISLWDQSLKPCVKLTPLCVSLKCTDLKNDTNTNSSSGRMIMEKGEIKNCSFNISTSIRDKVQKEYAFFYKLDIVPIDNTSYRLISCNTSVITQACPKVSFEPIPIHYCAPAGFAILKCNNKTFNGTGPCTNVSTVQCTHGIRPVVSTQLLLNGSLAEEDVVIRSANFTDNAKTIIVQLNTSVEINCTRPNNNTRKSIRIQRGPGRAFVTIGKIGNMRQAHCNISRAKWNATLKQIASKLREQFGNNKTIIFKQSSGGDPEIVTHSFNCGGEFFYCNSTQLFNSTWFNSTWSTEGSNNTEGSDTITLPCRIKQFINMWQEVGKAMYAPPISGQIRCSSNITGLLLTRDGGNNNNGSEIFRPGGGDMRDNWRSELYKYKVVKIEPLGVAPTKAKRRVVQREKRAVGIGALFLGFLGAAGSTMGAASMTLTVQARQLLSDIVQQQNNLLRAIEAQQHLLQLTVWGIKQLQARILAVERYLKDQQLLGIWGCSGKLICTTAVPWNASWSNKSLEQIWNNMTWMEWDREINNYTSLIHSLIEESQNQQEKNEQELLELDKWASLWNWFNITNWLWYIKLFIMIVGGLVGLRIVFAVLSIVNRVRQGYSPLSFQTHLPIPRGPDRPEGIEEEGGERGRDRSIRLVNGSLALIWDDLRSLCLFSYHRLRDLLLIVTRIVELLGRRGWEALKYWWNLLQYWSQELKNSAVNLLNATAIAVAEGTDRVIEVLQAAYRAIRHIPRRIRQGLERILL
Data set [16] concerns the target T1, Envelope glycoprotein gp160. The data set is described as follows: Binding affinity to HIV1 GP41 using GP41 NHR derived N36 peptide assessed as binding constant in presence of C34 by fluorescence polarization assay.
The nature of data set [17]: Apparent permeability of the compound across blood brain barrier in PBS buffer at pH 7.4 at 15 uM by PAMPA analysis. The class given is ADME, tissue-based.

For `CCCCCCCCCCCCCCCCCC(=O)NCCCC[C@H](NC(=O)CN(C[C@H](CC(C)C)NC(=O)CN(C[C@H](CCC(=O)O)NC(=O)CN(C[C@@H](NC(=O)CN(C[C@H](CCCCN)NC(=O)CN(C[C@H](Cc1ccc(O)cc1)NC(=O)CN(C[C@H](CCC(=O)O)NC(=O)CN(C[C@@H](NC(=O)CN(C[C@H](CCCCN)NC(=O)CN(C[C@H](Cc1c[nH]c2ccccc12)NC(=O)CN(C[C@H](CCC(=O)O)NC(=O)CN(C[C@H](Cc1c[nH]c2ccccc12)NC(=O)CN(C[C@H](CCSC)NC(C)=O)S(=O)(=O)CC(C)C)S(=O)(=O)CC(C)C)S(=O)(=O)c1ccc(C(=O)O)cc1)S(=O)(=O)CC(C)C)S(=O)(=O)CCN)[C@H](C)CC)S(=O)(=O)CC(C)C)S(=O)(=O)c1ccc(C(=O)O)cc1)S(=O)(=O)CC(C)C)S(=O)(=O)CCN)[C@H](C)CC)S(=O)(=O)CC(C)C)S(=O)(=O)c1ccc(C(=O)O)cc1)S(=O)(=O)CC(C)C)C(N)=O`, the Papp at 25 µM in [1] worked out at 234 ×10⁻⁶ cm/s. Further, the selectivity ratio in data set [2] is over 41. Also, the CC50 at 72 h in [3] is over 40000 nM. Moreover, the IC50 came to 84.9 nM in data set [4]; 87.8 nM in data set [6]; 89 nM in [7]; 81.3 nM in data set [8]; 124 nM in data set [9]; 980 nM in data set [10]. The IC50 in data set [12] was found to be 154 nM; in [13], 46.7 nM. For the same compound, the Papp at 50 µM in data set [5] came to 617 ×10⁻⁶ cm/s; in [11], 390 ×10⁻⁶ cm/s; in data set [14], 602 ×10⁻⁶ cm/s.

For `CCCCCCCCCCCCCCCCCC(=O)NCCCC[C@H](NC(=O)CN(C[C@H](CC(C)C)NC(=O)CN(C[C@H](CCC(=O)O)NC(=O)CN(C[C@@H](NC(=O)CN(C[C@H](CCCCN)NC(=O)CN(C[C@H](Cc1ccc(O)cc1)NC(=O)CN(C[C@H](CCC(=O)O)NC(=O)CN(C[C@@H](NC(=O)CN(C[C@H](CCCCN)NC(=O)CN(C[C@H](Cc1c[nH]c2ccccc12)NC(=O)CN(C[C@H](CCC(=O)O)NC(=O)CN(C[C@H](Cc1c[nH]c2ccccc12)NC(=O)CN(C[C@H](CCSC)NC(C)=O)S(=O)(=O)c1ccc(OC)cc1)S(=O)(=O)CC(C)C)S(=O)(=O)c1ccc(C(=O)O)cc1)S(=O)(=O)CC(C)C)S(=O)(=O)CCN)[C@H](C)CC)S(=O)(=O)CC(C)C)S(=O)(=O)c1ccc(C(=O)O)cc1)S(=O)(=O)CC(C)C)S(=O)(=O)CCN)[C@H](C)CC)S(=O)(=O)CC(C)C)S(=O)(=O)c1ccc(C(=O)O)cc1)S(=O)(=O)CC(C)C)C(N)=O`, the figures for the Kd in [15] and in data set [16] were 670 nM and over 46000 nM, respectively. The selectivity ratio in [2] was found to be 106. Besides, the CC50 at 72 h in data set [3] came to 19300 nM. Further, the IC50 in data set [4] was 85.3 nM; in data set [6], 88.8 nM; in data set [7], 60.4 nM; in data set [8] it was 940 nM; in [9] it was 64.7 nM; in data set [10], 180 nM. Besides, the IC50 in data set [12] amounted to 84.4 nM; in [13], 61 nM. Also, the Papp at 50 µM in [5] stood at 522 ×10⁻⁶ cm/s; in data set [11], 520 ×10⁻⁶ cm/s; in [14], 610 ×10⁻⁶ cm/s. The Papp at 15 µM in [17] was 256 ×10⁻⁶ cm/s.

In general, Papp refers to a coefficient for how fast a substance crosses the barrier. By CC50 is commonly meant the concentration that lowers cell viability or growth by half. In general, IC50 refers to the concentration at which inhibition is half-maximal. What is called Kd is a measure of binding affinity in units of concentration.
